Like-named read-outs stand apart in the source and are kept apart here.

Data set [1] has as its target T1, LecA (Pseudomonas aeruginosa, UniProt Q05097). Briefly: Inhibition of Hemagglutination (HIA), LecA-induced agglutination of rabbit erythrocytes. The class given is cell-based. Conditions: LecA 6 μg/mL, 25° C. Here is the method:
Inhibition of Hemagglutination (IHA) (or Hemagglutination Inhibition Assays (HIA)).
The LecA lectin agglutinates red blood cells since they are covered by glycoconjugates. The glycomimetics inhibit this agglutination.
For each compound the minimum concentration able to perform inhibition has been evaluated. The method is not very quantitative but mimics natural system.
(§1) More particularly, hemagglutination inhibition assays were performed in U-shaped 96-well microtitre plates. Rabbit erythrocytes were bought from Biomerieux and used without further washing. The erythrocytes were diluted to a 4% solution in NaCl (150 mM). Lectin solutions of 2 mg/mL were prepared in Tris/HCl 20 mM, NaCl 100 mM and CaCl2 100 μM. The hemagglutination unit (HU) was first obtained by the addition of 25 μL of the 4% erythrocyte solution to 25 μL aliquots of sequential (two-fold) lectin dilutions. The mixture was incubated at 25° C. for 60 minutes. The HU was measured as the minimum lectin concentration required to […] hemagglutination. For the following lectin-inhibition assays, lectin concentrations of four times that of the hemagglutination unit were used, i.e. a concentration of 6 μg/mL for LecA. Subsequent assays were then carried out by the addition of 12.5 μL lectin solution (at the required concentration) to 25 μL of sequential dilutions of glycoclusters, monomer molecules and controls. These solutions were then incubated at 25° C. for 2 h then 12.5 μL of 4% erythrocyte solution was added followed by an additional incubation at 25° C. for 30 minutes. The minimum inhibitory concentration for each molecule was determined by simple eye detection.
Compounds 5, 10, 14, 19, 21, 23, 25, 27, 29 and 31 were evaluated towards LecA according to Method 1.

Data set [2] concerns the target T1, LecA. Briefly: Enzyme-Linked Lectin Assay (ELLA), biotinylated LecA binding to polymeric galactose. As to the method: Enzyme-Linked Lectin Assay (ELLA) Experiments 96-well plates are covered with polymer presenting galactose (which is the monosaccharide that is bound by LecA). The lectin labelled with biotin is added in presence of competing glycomimetics. IC50 can be measured.
More particularly, ELLA experiments were conducted using 96-well microtitre plates (Nunc Maxisorb) coated with polymeric β-D-galactose (5 μg/mL; Lectinity Holding, Inc., Moscow) diluted in carbonate buffer, pH 9.6 (100 μL) for 1 h at 37° C. After blocking at 37° C. for 1 h with 100 μL per well of 3% (w/v) BSA in PBS, plates were incubated at 37° C. for 1 h with 100 μL of biotinylated LecA at 0.1 μg/mL in the presence of serial dilutions of inhibitors. After washing with T-PBS (PBS containing 0.05% Tween), 100 μL of streptavidinperoxidase conjugate (dilution 1:10000; Boehringer-Mannheim) was added and left for 1 h at 37° C. The color was developed using 100 μL per well of 0.05 M phosphate/citrate buffer containing O-phenylenediamine dihydrochloride (0.4 mg/mL) and urea hydrogen peroxide (0.4 mg/mL) (Sigma-Aldrich). The reaction was stopped by the addition of 50 μL of 30% H2SO4. Absorbance was read at 490 nm using a microtitre plate reader (Bio-Rad; model 680).

The target in data set [3] is T1, LecA. Briefly: biochemical. Format: binding. As to the method:
Surface Plasmon Resonance (SPR).
Equivalent method, but performed in miniaturized channel on a galactose-containing chips in a more sophisticated apparatus (Biacore 3000) that allows for a precise determination of the IC50.
More particularly, SPR inhibition experiments were performed on a Biacore 3000 instrument at 25° C. Measurements were carried out on 2 channels with 2 immobilised sugars: α-L-fucose (channel 1), α-D-galactose (channel 2). Immobilization of sugars was performed at 25° C. using running buffer (HBS) at 5 μL/min. Immobilization on each channel (CM5 Chip) was performed independently as follows. First, channel was activated by injecting a fresh mixture of EDC/NHS (35 μL, 420 s). Then, a solution of strepatavidin (100 μg/mL in Na acetate pH 5 buffer) was injected (50 μL, 600 s). Remaining reactive species were quenched by injecting ethanolamine (1M, 35 μL, 420 s). Finally a solution of the desired biotinylated-polyacrylamide-sugar (Lectinity, 200 μg/mL) was coated onto the surface (50 μL, 600 s) through streptavidin-biotin interaction. This procedure led to 804 RU (fucoside) and 796 RU (galactoside) of immobilized sugars on channel 1 and 2 respectively. Inhibition experiments were performed with the galactosylated channel 2 and plots represent subtracted data (channel 2-channel 1).
LecA was injected using running buffer consisting of HEPES 10 mM, NaCl 150 mM, CaCl2 10 mM, Tween P20 0.005%, pH 7.4. Inhibition studies consisted in the injection (150 μL, 10 μL/min, dissociation: 120 s) of incubated (>1 h, r.t.) mixtures of LecA (5 μM) and various concentrations of inhibitor (2-fold cascade dilutions). For each inhibition assay, LecA (5 μM) without inhibitor was injected to observe the full adhesion of the lectin onto the sugar-coated surface (0% inhibition). The CM5 chip was fully regenerated by successive injections of D-Galactose (2×30 μL, 100 mM in running buffer).
Binding was measured as RU over time after blank subtraction, and data were then evaluated using the BIAevaluation Software, version 4.1. For IC50 evaluation, the response (Req-fitted) was considered as the amount of lectin bound to the sugar surface at equilibrium in the presence of a defined concentration of inhibitor. Inhibition curves were obtained by plotting the percentage of inhibition against the inhibitor concentration (on a logarithmic scale) by using Origin 7.0 software (OriginLab Corp.) and IC50 values were extracted from sigmoidal fit of the inhibition curve.

In data set [4] the target is T1, LecA. In words: biochemical. The class given is binding. Here is the method:
Isothermal Titration Microcalorimetry (ITC).
The method allows for a direct measurement of the affinity between the glycomimetics and the LecA lectin. The dissociation constant is measured.
More particularly, recombinant lyophilized LecA was dissolved in buffer (0.1 M TrisHCl, 6 μM CaCl2, pH 7.5) and degassed (see Supp. Info. for concentration details). Protein concentration was checked by measurement of optical density using a theoretical molar extinction coefficient of 28000. Carbohydrate ligands were dissolved directly into the same buffer, degassed, and placed in the injection syringe. ITC was performed with a VP-ITC MicroCalorimeter from MicroCal Incorporated. PA-IL was placed into the 1.4478-mL sample cell, at 25° C. Titration was performed with 10-μL injections of carbohydrate ligands every 300 s. Data were fitted with MicroCal Origin 7 software, according to standard procedures. Fitted data yielded the stoichiometry (n), the association constant (Ka) and the enthalpy of binding (ΔH).
Other thermodynamic parameters (i.e. changes in free energy, ΔG, and entropy, ΔS) were calculated from the equation: ΔG=ΔH TΔS=−RT Inka where T is the absolute temperature and R=8.314 J·mol^−1·K^−1. Two or three independent titrations were performed for each ligand tested.
The source holds these as a separate data set.

In data set [5] the test system is Rabbit erythrocytes. In words: Hemolysis of red cells observed in the hemagglutination inhibition assay. Format: cell-based. The following applies: at the concentration used in the hemagglutination inhibition assay. Here is the method:
as §1
The values given in table 1 are inhibiting concentrations of lectin-induced rec cells agglutination. Monocovalent glycoconjugate compound 14 and tetravalent glyconjugate compounds 21 and 23 are the most efficient.

Where [6] appears, read: read-out: IC50 for the inhibition of labelled-LecA binding to a galactosylated polymer (ELLA), biotinylated LecA 0.1 μg/mL, multi-well plate.
Setting [7] is: read-out: IC50 for the inhibition of label-free LecA binding to a galactosylated chip surface (SPR), LecA 5 μM, 25° C.
[8] abbreviates: read-out: Dissociation constant for the interaction in solution with LecA (ITC), 25° C., 0.1 M TrisHCl, pH 7.5.

T1 sequence (Q05097 whole entry): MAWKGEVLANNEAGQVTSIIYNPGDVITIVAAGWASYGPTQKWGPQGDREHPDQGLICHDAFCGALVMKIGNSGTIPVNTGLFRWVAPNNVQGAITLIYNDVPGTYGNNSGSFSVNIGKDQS

`CC(C)(C)c1cc2c(OCc3cn(CC(=O)NCC(=O)NCCOC4OC(CO)C(O)C(O)C4O)nn3)c(c1)Cc1cc(C(C)(C)C)cc(c1OCc1cn(CC(=O)NCC(=O)NCCOC3OC(CO)C(O)C(O)C3O)nn1)Cc1cc(C(C)(C)C)cc(c1OCc1cn(CC(=O)NCC(=O)NCCOC3OC(CO)C(O)C(O)C3O)nn1)Cc1cc(C(C)(C)C)cc(c1OCc1cn(CC(=O)NCC(=O)NCCOC3OC(CO)C(O)C(O)C3O)nn1)C2` (stereo not drawn) [Comp. 25]: in data set [1], the “inhibiting concentrations of lectin-induced red cells agglutination (minimum inhibitory concentration)” value (“inhibiting concentrations” for short) was determined as 625 µM. Also, the IC50 in data set [2] (setting [6]) worked out at 14 µM; in data set [3] (setting [7]) it was 1.2 µM. For the same compound, the “IC50 (SPR), in words” value in data set [3] is reported as “micromolar range”.

As for `CC(C)(C)c1cc2c(OCc3cn(CC(=O)NCC(=O)NCCOC4OC(CO)C(O)C(O)C4O)nn3)c(c1)Cc1cc(C(C)(C)C)cc(c1OCc1cn(CC(=O)NCC(=O)NCCOC3OC(CO)C(O)C(O)C3O)nn1)Cc1cc(C(C)(C)C)cc(c1OCc1cn(CC(=O)NCC(=O)NCCOC3OC(CO)C(O)C(O)C3O)nn1)Cc1cc(C(C)(C)C)cc(c1OCc1cn(CC(=O)NCC(=O)NCCOC3OC(CO)C(O)C(O)C3O)nn1)C2` (stereo not drawn) [Comp. 21], in data set [1], the “inhibiting concentrations” value stood at 250 µM. Besides, in data set [2] (setting [6]), the half-maximal inhibitory concentration (IC50) is 21 µM.

Regarding `O=C(CNC(=O)Cn1cc(CO)nn1)NCCO[C@@H]1O[C@H](CO)[C@H](O)[C@H](O)[C@H]1O` [Comp. 10, 2-N-[(1,2,3-Triazol-4-hydroxymethyl-1-yl)-acetamido]glycinamido-ethyl β-D-galactopyranoside], in data set [1], the “inhibiting concentrations” value was 2 500 μM. The half-inhibitory concentration (IC50) was 300 µM in data set [2] and 60 µM in data set [3]. For the same compound, in data set [4], the Kd was 180 µM.

Turning to `CC(C)(C)c1cc2c(OCc3cn(CC(=O)Nc4ccc(OC5OC(CO)C(O)C(O)C5O)cc4)nn3)c(c1)Cc1cc(C(C)(C)C)cc(c1OCc1cn(CC(=O)Nc3ccc(OC4OC(CO)C(O)C(O)C4O)cc3)nn1)Cc1cc(C(C)(C)C)cc(c1OCc1cn(CC(=O)Nc3ccc(OC4OC(CO)C(O)C(O)C4O)cc3)nn1)Cc1cc(C(C)(C)C)cc(c1OCc1cn(CC(=O)Nc3ccc(OC4OC(CO)C(O)C(O)C4O)cc3)nn1)C2` (stereo not drawn) [Comp. 31], in data set [2] (setting [6]), the half-inhibitory concentration (IC50) turned out to be 5 µM. For the same compound, the “Hemolysis of red cells” value in data set [5] was “Hemolysis of red cells is observed”.

`CC(C)(C)c1cc2c(OCc3cn(CC(=O)NCC(=O)NCCOC4OC(CO)C(O)C(O)C4O)nn3)c(c1)Cc1cc(C(C)(C)C)cc(c1OCc1cn(CC(=O)NCC(=O)NCCOC3OC(CO)C(O)C(O)C3O)nn1)Cc1cc(C(C)(C)C)cc(c1OCc1cn(CC(=O)NCC(=O)NCCOC3OC(CO)C(O)C(O)C3O)nn1)Cc1cc(C(C)(C)C)cc(c1OCc1cn(CC(=O)NCC(=O)NCCOC3OC(CO)C(O)C(O)C3O)nn1)C2` (stereo not drawn) [Comp. 23]: the “inhibiting concentrations” value in data set [1] amounted to 250 µM. Moreover, the concentration for half-maximal inhibition (IC50) amounted to 7 µM in data set [2] (setting [6]) and 1.1 µM in data set [3] (setting [7]). In addition, the “IC50 (SPR), in words” value in data set [3] was “micromolar range”. In data set [4] (setting [8]), the Kd is 239 µM.

Regarding `O=C(Cn1cc(CO)nn1)NCCOCCO[C@@H]1O[C@H](CO)[C@H](O)[C@H](O)[C@H]1O` [Comp. 5, 1-[(1,2,3-Triazol-4-hydroxymethyl-1-yl)-acetamido]-3-oxapent-5-yl β-D-galactopyranoside], in data set [1], the “inhibiting concentrations” value is reported as 10 000 μM. Besides, the IC50 in data set [2] was determined as 250 µM; in data set [3], 58.3 µM. Further, in data set [4], the Kd was 107 µM.

Consider `CC(C)(C)c1cc2c(OCc3cn(CC(=O)Nc4ccc(OC5OC(CO)C(O)C(O)C5O)cc4)nn3)c(c1)Cc1cc(C(C)(C)C)cc(c1OCc1cn(CC(=O)Nc3ccc(OC4OC(CO)C(O)C(O)C4O)cc3)nn1)Cc1cc(C(C)(C)C)cc(c1OCc1cn(CC(=O)Nc3ccc(OC4OC(CO)C(O)C(O)C4O)cc3)nn1)Cc1cc(C(C)(C)C)cc(c1OCc1cn(CC(=O)Nc3ccc(OC4OC(CO)C(O)C(O)C4O)cc3)nn1)C2` (stereo not drawn) [Comp. 27], for which the “IC50 (ELLA), in words” value in data set [2] is given as “sub micromolar range”. Further, the 50% inhibitory concentration (IC50) in data set [2] (setting [6]) is 0.8 µM. Further, the “Hemolysis of red cells” value in data set [5] is reported as “Hemolysis of red cells is observed”.

Turning to `CC(C)(C)c1cc2c(OCc3cn(CC(=O)NCCOCCOC4OC(CO)C(O)C(O)C4O)nn3)c(c1)Cc1cc(C(C)(C)C)cc(c1OCc1cn(CC(=O)NCCOCCOC3OC(CO)C(O)C(O)C3O)nn1)Cc1cc(C(C)(C)C)cc(c1OCc1cn(CC(=O)NCCOCCOC3OC(CO)C(O)C(O)C3O)nn1)Cc1cc(C(C)(C)C)cc(c1OCc1cn(CC(=O)NCCOCCOC3OC(CO)C(O)C(O)C3O)nn1)C2` (stereo not drawn) [Comp. 19], in data set [1], the “inhibiting concentrations” value amounted to 500 µM. Moreover, the IC50 in data set [2] (setting [6]) is 7 µM; in data set [3] (setting [7]), 1 µM. In addition, in data set [3], the “IC50 (SPR), in words” value is given as “micromolar range”. Moreover, the Kd in data set [4] (setting [8]) came to 0.094 µM; in data set [4] (read-out: dissociation constant (ITC), 25° C.), 0.094 µM.

In general, IC50 refers to the concentration that gives 50% inhibition.

(Values after patent publication US9023814B2, “Glycomimetic compounds as anti-infectious against pathogens lectins” (priority 2010, dated 2015).)
